Results taken from patent US20230365571A1, “COMPOUNDS AND COMPOSITIONS AS Sppl2a INHIBITORS” (Novartis AG, priority 2020, published 2023).

Tests used:
human SPPL2a [1] = biological target: T1, human SPPL2a (Homo sapiens, UniProt Q8TCT8); test: Sppl2a RGA (reporter gene assay) in HEK293 cells; format: cell-based; design: expressed in transfected cells; host or cells: HEK293 (transient); conditions: NT-TNF-VP16-Gal4 substrate, Gal4-luciferase reporter, 24 h
T1 sequence (Q8TCT8 26-520): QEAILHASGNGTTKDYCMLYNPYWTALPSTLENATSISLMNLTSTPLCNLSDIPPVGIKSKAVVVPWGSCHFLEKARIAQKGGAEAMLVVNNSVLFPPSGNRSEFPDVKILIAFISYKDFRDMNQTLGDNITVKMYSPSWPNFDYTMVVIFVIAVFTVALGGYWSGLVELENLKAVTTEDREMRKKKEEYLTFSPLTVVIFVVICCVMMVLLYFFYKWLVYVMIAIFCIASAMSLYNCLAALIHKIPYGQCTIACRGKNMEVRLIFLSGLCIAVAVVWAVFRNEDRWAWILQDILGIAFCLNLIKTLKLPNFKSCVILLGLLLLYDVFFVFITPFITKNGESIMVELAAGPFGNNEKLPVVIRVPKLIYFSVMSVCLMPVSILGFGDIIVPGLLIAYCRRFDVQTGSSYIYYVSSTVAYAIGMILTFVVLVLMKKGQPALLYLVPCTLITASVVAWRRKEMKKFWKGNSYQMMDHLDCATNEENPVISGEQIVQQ
Source text: Sppl2a RGA (Reporter Gene Assay):
Sppl2a is an intramembrane aspartyl protease with similarities to presenilin, the active subunit of the γ-secretase complex. The assay is based on the coupling of the proteolytic degradation of a membrane bound synthetic substrate (VP16-Gal4 fusion protein with the N-terminal domain of TNF alpha), which migrates to the nucleus upon cleavage, with the Gal4 driven expression of luciferase. Inhibition of Sppl2a results in a reduction of nuclear VP16-Gal4 activator and therefore in a reduction of the production of luciferase. The luciferase dependent-luminescence is plotted against the concentrations of compound to generate a dose response curve, which allows the calculation of the IC50 value.
DNA vectors encoding human Sppl2a, NT-TNF-VP16-Gal4 and a Gal4-luciferase reporter were transiently transfected in HEK293 cells. In a typical experiment 5 μg plasmid for SPPL2a, 10 μg plasmid encoding the reporter Gal4-luciferase and 20 μg plasmid encoding the substrate NT-TF-VP16-Gal4 were mixed together. The DNA mixture was combined with 107 μl FuGENE® (Promega), 735 μl Opti-MEM® (Life Technologies) and incubated for 5 minutes at RT. To this mixture 20 mL of concentrated HEK293 cells were added and thoroughly mixed. The cell suspension was distributed to a white solid 384 well plate. Within 5 hours, 50 nl of compound in DMSO was stamped into the wells via pintool. The plate was incubated for 24 h at 37° C., 5% CO2 in a humidified incubator, before the addition of 25 μl Bright Glo. After incubation at RT for 5 min, the plate was transferred to a luminometer and the luminescence was measured. The IC50 was determined by plotting compound concentration vs. normalized luminescence values.

human SPPL2a [2] = biological target: T1, human SPPL2a; test: Sppl2a TL (translocation) imaging assay in U-2 OS cells; format: cell-based; design: expressed in transfected cells; conditions: U-2 OS cells expressing human SPPL2a and EGFP-TNFα(aa1-76) NTF substrate; 24 h
Method: SPPL2a, TL in U-2 OS Cells. Stable U-2 OS cell lines expressing human SPPL2a constitutively and a EGFP-labeled TNFα(aa1-76) NTF substrate under a doxycycline-regulated promoter were used for the imaging assays. Cells were seeded at 3000 cells/30 μL/384-well in DMEM/GlutaMax™-I (Invitrogen) supplemented with tetracycline-free 10% FBS (Amimed) and incubated at 37° C., 5% CO2 for 3-4 h. Subsequently, 3.3 μL of inhibitors, prediluted in doxycycline-containing medium for 11-point concentration-response curves, were added to each well using a CyBi well liquid handling device (Cybio AG, Jena, Germany) to result in final inhibitor concentrations ranging from 100 μM to 1 nM (final DMSO concentration 0.9% (v/v)) and 5 μg/mL doxycycline). The cells were incubated with inhibitor at 37° C., 5% CO2 for 24 h. Thereafter cell were fixed in 4% PFA/PBS and in parallel, nuclei were stained with Hoechst (Invitrogen) 1:5000 in PBS for 30 min. The plates were imaged using a Cellomics ArrayScan VTI HCS reader with 10×/0.3NA objective (Thermo Fisher Scientific, USA). Six images per well were acquired. Images for the EGFP signal (Ex395, Em509) and the Hoechst nuclear dye (Ex350, Em425) were acquired simultaneously with image analysis using the “Nuclear Translocation” assay algorithm of the Cellomics ArrayScan software. Nuclei were detected based on the Hoechst staining, the nuclear mask was transferred to the EGFP channel, and a 4 pixel wide cytoplasm ring region was defined around the nucleus. The intensity of the EGFP signal was measured both in the nuclear and in the cytoplasm ring region of each individual cell (in general 800-1000 individual cells were analyzed per well), and the difference of the average nuclear versus average cytoplasmic intensity of the EGFP signal was calculated (“CircRingAvgIntenDiffCh2”=“CircAvgIntenCh2”−“RingAvgIntenCh2”). Additionally the number of cells were acquired (feature termed “ValidCellCount”) and used to calculate cell toxicity (CC50). Percent inhibition was calculated relative to the positive (0.5 μM LY-411,575=100% inhibition) and negative (DMSO=0% inhibition) controls. The IC50 value was calculated from the plot of percentage of inhibition vs inhibitor concentration using nonlinear regression analysis software, e.g., Origin (OriginLab Corp.).

SMILES	IC50 (human SPPL2a [1])	IC50 (human SPPL2a [2])
CC[C@H](CNC(=O)c1scnc1Cl)C(=O)N[C@@H]1C(=O)N2CC3(CC3)CN2C(=O)c2ccccc21 [Example 49, 4-Chloro-N-((R)-2-(((S)-5,11-dioxo-10,11-dihydro-1H,3H,5H-spiro [benzo[d]pyr-azolo[1,2-a][1,2]diazepine-2,1″-cyclopropan]-10-yl)carbamoyl)butyl) thiazole-5-carboxamide]	89 nM	91 nM
Cc1nc(Cl)c(C(=O)NC[C@H](C(=O)N[C@@H]2C(=O)N3CCCN3Cc3c(F)cccc32)C2CC2)s1 [Example 55, 4-Chloro-N-((R)-2-cyclopropyl-3-(((S)-6-fluoro-11-oxo-2,3,10,11-tetrahydro-1H,5H-benzo[d]pyrazolo [1,2-a][1,2]diazepin-10-yl)amino)-3-oxopropyl)-2-methylthiazole-5-carboxamide]	152 nM	163 nM
CC[C@H](CNC(=O)c1ccnn1C(F)F)C(=O)N[C@@H]1C(=O)N2CC3(CC3)CN2C(=O)c2ccccc21 [Example 56, 1-(Difluoromethyl)-N-((R)-2-(((S)-5,11-dioxo-10,11-dihydro-1H,3H,5H-spiro[benzo[d]pyr-azolo[1,2-a][1,2]diazepine-2,1′-cyclopropan]-10-yl)carbamoyl)butyl)-1H-pyrazole-5-carboxamide]	101 nM	191 nM
CC[C@H](CNC(=O)c1scnc1C(F)(F)F)C(=O)N[C@@H]1C(=O)N2CC3(CC3)CN2C(=O)c2ccccc21 [Example 57, N-((R)-2-(((S)-5,11-Dioxo-10,11-dihydro-1H,3H,5H-spiro[benzo[d]pyr-azolo[1,2-a][1,2]diazepine-2,1′-cyclopropan]-10-yl)carbamoyl)butyl)-4-(trifluoromethyl) thiazole-5-carboxamide]	148 nM	332 nM
Cc1nc(Cc2ccccc2)sc1C(=O)NC[C@@H](C)C(=O)N[C@@H]1C(=O)N2CCCN2Cc2ccccc21 [Example 58, 2-Benzyl-4-methyl-N-((R)-2-methyl-3-oxo-3-(((S)-11-oxo-2,3,10,11-tetrahydro-1H,5H-benzo[d]pyrazolo [1,2-a][1,2]diazepin-10-yl)amino)propyl) thiazole-5-carboxamide]	194 nM	373 nM
CC[C@H](CNC(=O)c1sc(C2CC2)nc1C(F)(F)F)C(=O)N[C@@H]1C(=O)N2CC3(CC3)CN2C(=O)c2ccccc21 [Example 59, 2-Cyclopropyl-N-((R)-2-(((S)-5,11-dioxo-10,11-dihydro-1H,3H,5H-spiro[benzo[d]pyr-azolo[1,2-a][1,2]diazepine-2,1′-cyclopropan]-10-yl)carbamoyl)butyl)-4-(trifluoromethyl) thiazole-5-carboxamide]	661 nM	555 nM
Cc1ccn(C)c1C(=O)NC[C@@H](C)C(=O)N[C@@H]1C(=O)N2CCCN2Cc2ccccc21 [Example 60, 1,3-dimethyl-N-((R)-2-methyl-3-oxo-3-(((S)-11-oxo-2,3,10,11-tetrahydro-1H,5H-benzo[d]pyrazolo [1,2-a][1,2]diazepin-10-yl)amino)propyl)-1H-pyrrole-2-carboxamide]	277 nM	580 nM
C[C@H](CNC(=O)c1ccnn1C)C(=O)N[C@@H]1C(=O)N2CCCN2Cc2ccccc21 [Example 61, 1-methyl-N-((R)-2-methyl-3-oxo-3-(((S)-11-oxo-2,3,10,11-tetrahydro-1H,5H-benzo[d]pyrazolo [1,2-a][1,2]diazepin-10-yl)amino)propyl)-1H-pyrazole-5-carboxamide]	691 nM	686 nM

The next molecules have a lower IC50 (human SPPL2a [1]) than those just listed; values first:

IC50 (human SPPL2a [1])	IC50 (human SPPL2a [2])	SMILES
42 nM	57 nM	O=C(NC[C@H](C(=O)N[C@@H]1C(=O)N2CCCN2C(=O)c2ccccc21)C(F)(F)F)c1sc(-c2ccc(C(F)(F)F)nc2)nc1Cl [Example 40, 4-Chloro-N-((R)-2-(((S)-5,11-dioxo-2,3,10,11-tetrahydro-1H,5H-benzo[d]pyrazolo [1,2-a][1,2]diazepin-10-yl)carbamoyl)-3,3,3-trifluoropropyl)-2-(6-(trifluoromethyl)pyridin-3-yl)thiazole-5-carboxamide]
37 nM	59 nM	Cc1cc(-c2nc(C)c(C(=O)NC[C@H](C(=O)N[C@@H]3C(=O)N4CCCN4C(=O)c4ccccc43)C3CC3)s2)on1 [Example 41, N-((R)-2-Cyclopropyl-3-(((S)-5,11-dioxo-2,3,10,11-tetrahydro-1H,5H-benzo[d]pyrazolo [1,2-a][1,2]diazepin-10-yl)amino)-3-oxopropyl)-4-methyl-2-(3-methylisoxazol-5-yl)thiazole-5-carboxamide]
27 nM	67 nM	Cc1nc(C2=CCOCC2)sc1C(=O)NC[C@H](C(=O)N[C@@H]1C(=O)N2CCCN2Cc2ccccc21)C(F)(F)F [Example 44, 2-(3,6-Dihydro-2H-pyran-4-yl)-4-methyl-N-((R)-3,3,3-trifluoro-2-(((S)-11-oxo-2,3,10,11-tetrahydro-1H,5H-benzo[d]pyrazolo [1,2-a][1,2]diazepin-10-yl)carbamoyl)pro-pyl)thiazole-5-carboxamide]
22 nM	85 nM	Cc1noc(C)c1C(=O)NC[C@H](C(=O)N[C@@H]1C(=O)N2CCCN2C(=O)c2ccccc21)C(F)(F)F [Example 48, N-((R)-2-(((S)-5,11-Dioxo-2,3,10,11-tetrahydro-1H,5H-benzo[d]pyrazolo [1,2-a][1,2]diazepin-10-yl)carbamoyl)-3,3,3-trifluoropropyl)-3,5-dimethylisoxazole-4-carboxamide]
52 nM	99 nM	CC[C@H](CNC(=O)c1oncc1C)C(=O)N[C@@H]1C(=O)N2CCCN2Cc2ccccc21 [Example 51, 4-Methyl-N-((R)-2-(((S)-11-oxo-2,3,10,11-tetrahydro-1H,5H-benzo[d]pyrazolo [1,2-a][1,2]diazepin-10-yl)carbamoyl)butyl) isoxazole-5-carboxamide]
48 nM	129 nM	O=C(NC[C@H](C(=O)N[C@@H]1C(=O)N2CCCN2Cc2c(F)cccc21)C1CC1)c1sc(C2CC2)nc1Cl [Example 54, 4-Chloro-2-cyclopropyl-N-((R)-2-cyclopropyl-3-(((S)-6-fluoro-11-oxo-2,3,10,11-tetrahydro-1H,5H-benzo[d]pyrazolo [1,2-a][1,2]diazepin-10-yl)amino)-3-oxopropyl)thiazole-5-carboxamide]
